According to US11203563B2, “Preparation of zinc linolenate, and application of zinc linolenate in preparing anti-helicobacter pylori drug” (NANJING MEDICAL UNIVERSITY, priority 2018, dated 2021):

Tests used:
[1] = tested on: Helicobacter pylori HP285; experiment: MIC by broth microdilution method; assay type: cell-based; set-up: key: +: Bacterial growth; −: No bacterial growth; details: HP285 (Clarithromycin and metronidazole resistant), 72 h
Experimental: (§1) 2.1 Detection of minimum inhibitory concentration (MIC, 100 µL system) of zinc linolenate for Helicobacter pylori by a broth microdilution method
(§2) (1) Zinc linolenate (2 mg/mL) is prepared.
(§3) (3) Bacterial solution preparation: the Helicobacter pylori grown in a log phase on a solid plate is taken to make a bacterial suspension with a BHI culture medium, the absorbance (OD600) is adjusted to 0.3 (1×10^8 CFU/mL), and the bacterial suspension is diluted 10 times to 1×10^7 CFU/mL for later use.
(§4) (4) Inoculation of bacterial solution: 10 μL of bacterial solution above is taken and added to the 1-8th wells (the concentration of the bacterial solution per well is about 1.0×10^6 CFU/mL). Culture is performed for 72 h to judge the result. The drug concentrations of the 1-7th wells are 64, 32, 16, 8, 4, 2, and 1 μg/mL, respectively.
(§5) The experiment only makes sense when the bacteria obviously grow in the 8th well, i.e. the positive control well (without antibiotics). When a single drift occurs in the microdilution method, the maximum drug concentration that inhibits bacterial growth should be recorded. If there are multiple drifts, the results should not be reported and the experiment should be repeated. The experiment is repeated 3 times for each drug.

[2] = tested on: Helicobacter pylori NSH57; experiment: MIC by broth microdilution method; assay type: cell-based; set-up: key: +: Bacterial growth; −: No bacterial growth; details: NSH57 (Sensitive), 72 h
Experimental: as §1, §2, §3, §4, §5

[3] = tested on: Helicobacter pylori HP163; experiment: MIC by broth microdilution method; assay type: cell-based; set-up: key: +: Bacterial growth; −: No bacterial growth; details: HP163 (Levofloxacin and metronidazole resistant), 72 h
Experimental: as §1, §2, §3, §4, §5

[4] = tested on: Helicobacter pylori MSD132; experiment: MIC by broth microdilution method; assay type: cell-based; set-up: key: +: Bacterial growth; −: No bacterial growth; details: MSD132 (Sensitive), 72 h
Experimental: as §1, §2, §3, §4, §5

[5] = tested on: Helicobacter pylori HP159; experiment: MIC by broth microdilution method; assay type: cell-based; set-up: key: +: Bacterial growth; −: No bacterial growth; details: HP159 (Levofloxacin, clarithromycin and metronidazole resistant), 72 h
Experimental: as §1, §2, §3, §4, §5

[6] = tested on: Helicobacter pylori HP160; experiment: MIC by broth microdilution method; assay type: cell-based; set-up: key: +: Bacterial growth; −: No bacterial growth; details: HP160 (Metronidazole resistant), 72 h
Experimental: as §1, §2, §3, §4, §5

[7] = tested on: Helicobacter pylori HP26695; experiment: MIC by broth microdilution method; assay type: cell-based; set-up: key: +: Bacterial growth; −: No bacterial growth; details: HP26695 (Sensitive), 72 h
Experimental: as §1, §2, §3, §4, §5

[8] = tested on: Helicobacter pylori HP161; experiment: MIC by broth microdilution method; assay type: cell-based; set-up: key: +: Bacterial growth; −: No bacterial growth; details: HP161 (Clarithromycin resistant), 72 h
Experimental: as §1, §2, §3, §4, §5

[9] = tested on: Helicobacter pylori G27; experiment: MIC by broth microdilution method; assay type: cell-based; set-up: key: +: Bacterial growth; −: No bacterial growth; details: G27 (Sensitive), 72 h
Experimental: as §1, §2, §3, §4, §5

[10] = tested on: AGS cells
Experimental: 2.4.1 Cytotoxicity detection
(1) Ges-1 and AGS cell suspensions are prepared, and the concentration is adjusted to 1×10^6.
(2) Inoculation into a 96-well plate: 100 μL is added per well, and 3 replicates is performed for the same sample.
(3) Culture is performed for 12 hours in an incubator at 37° C.
(4) 10 μL of zinc linolenate, 10 μL of linolenic acid, and 10 μL of zinc chloride are added respectively, and the working concentrations are 400 μg/mL, 300 μg/mL, 200 μg/mL, 100 μg/mL, and 0 μg/mL, respectively. A group added with drugs and without cells and a PBS control group are set.
(5) Culture is performed for 12 hours in an incubator at 37° C.
(6) 10 μL of CCK-8 is added, mixed by tapping and incubated for 4 hours.
(7) The absorbance at 450 nm is measured, and the survival rate is calculated according to the formula: cell proliferation rate[(As−Ab)]/[(Ac−Ab)]×100%, wherein As are wells containing the cell culture medium, drugs, and CCK-8; Ac are wells containing the cell culture medium, CCK-8, and no drug; and Ab are wells containing no cells and drugs, but only the culture medium and CCK-8. A survival curve is established based on the survival rate.

## CC/C=C\C/C=C\C/C=C\CCCCCCCC(=O)[O-].CC/C=C\C/C=C\C/C=C\CCCCCCCC(=O)[O-].[Zn+2] [zinc linolenate]
[1]; zinc linolenate 1 μg/ml
  Bacterial growth: +
[1]; zinc linolenate 2 μg/ml
  Bacterial growth: +
[1]; zinc linolenate 4 μg/ml
  Bacterial growth: +
[1]; zinc linolenate 8 μg/ml
  Bacterial growth: −
[1]; zinc linolenate 16 μg/ml
  Bacterial growth: −
[1]; zinc linolenate 32 μg/ml
  Bacterial growth: −
[1]; zinc linolenate 64 μg/ml
  Bacterial growth: −
[2]; zinc linolenate 1 μg/ml
  Bacterial growth: +
[2]; zinc linolenate 2 μg/ml
  Bacterial growth: +
[2]; zinc linolenate 4 μg/ml
  Bacterial growth: +
[2]; zinc linolenate 8 μg/ml
  Bacterial growth: −
[2]; zinc linolenate 16 μg/ml
  Bacterial growth: −
[2]; zinc linolenate 32 μg/ml
  Bacterial growth: −
[2]; zinc linolenate 64 μg/ml
  Bacterial growth: −
[3]; zinc linolenate 1 μg/ml
  Bacterial growth: +
[3]; zinc linolenate 2 μg/ml
  Bacterial growth: +
[3]; zinc linolenate 4 μg/ml
  Bacterial growth: +
[3]; zinc linolenate 8 μg/ml
  Bacterial growth: −
[3]; zinc linolenate 16 μg/ml
  Bacterial growth: −
[3]; zinc linolenate 32 μg/ml
  Bacterial growth: −
[3]; zinc linolenate 64 μg/ml
  Bacterial growth: −
[4]; zinc linolenate 1 μg/ml
  Bacterial growth: +
[4]; zinc linolenate 2 μg/ml
  Bacterial growth: +
[4]; zinc linolenate 4 μg/ml
  Bacterial growth: +
[4]; zinc linolenate 8 μg/ml
  Bacterial growth: −
[4]; zinc linolenate 16 μg/ml
  Bacterial growth: −
[4]; zinc linolenate 32 μg/ml
  Bacterial growth: −
[4]; zinc linolenate 64 μg/ml
  Bacterial growth: −
[5]; zinc linolenate 1 μg/ml
  Bacterial growth: +
[5]; zinc linolenate 2 μg/ml
  Bacterial growth: +
[5]; zinc linolenate 4 μg/ml
  Bacterial growth: +
[5]; zinc linolenate 8 μg/ml
  Bacterial growth: −
[5]; zinc linolenate 16 μg/ml
  Bacterial growth: −
[5]; zinc linolenate 32 μg/ml
  Bacterial growth: −
[5]; zinc linolenate 64 μg/ml
  Bacterial growth: −
[6]; zinc linolenate 1 μg/ml
  Bacterial growth: +
[6]; zinc linolenate 2 μg/ml
  Bacterial growth: +
[6]; zinc linolenate 4 μg/ml
  Bacterial growth: −
[6]; zinc linolenate 8 μg/ml
  Bacterial growth: −
[6]; zinc linolenate 16 μg/ml
  Bacterial growth: −
[6]; zinc linolenate 32 μg/ml
  Bacterial growth: −
[6]; zinc linolenate 64 μg/ml
  Bacterial growth: −
[7]; zinc linolenate 1 μg/ml
  Bacterial growth: +
[7]; zinc linolenate 2 μg/ml
  Bacterial growth: +
[7]; zinc linolenate 4 μg/ml
  Bacterial growth: +
[7]; zinc linolenate 8 μg/ml
  Bacterial growth: −
[7]; zinc linolenate 16 μg/ml
  Bacterial growth: −
[7]; zinc linolenate 32 μg/ml
  Bacterial growth: −
[7]; zinc linolenate 64 μg/ml
  Bacterial growth: −
[8]; zinc linolenate 1 μg/ml
  Bacterial growth: +
[8]; zinc linolenate 2 μg/ml
  Bacterial growth: +
[8]; zinc linolenate 4 μg/ml
  Bacterial growth: +
[8]; zinc linolenate 8 μg/ml
  Bacterial growth: −
[8]; zinc linolenate 16 μg/ml
  Bacterial growth: −
[8]; zinc linolenate 32 μg/ml
  Bacterial growth: −
[8]; zinc linolenate 64 μg/ml
  Bacterial growth: −
[9]; zinc linolenate 1 μg/ml
  Bacterial growth: +
[9]; zinc linolenate 2 μg/ml
  Bacterial growth: +
[9]; zinc linolenate 4 μg/ml
  Bacterial growth: −
[9]; zinc linolenate 8 μg/ml
  Bacterial growth: −
[9]; zinc linolenate 16 μg/ml
  Bacterial growth: −
[9]; zinc linolenate 32 μg/ml
  Bacterial growth: −
[9]; zinc linolenate 64 μg/ml
  Bacterial growth: −
[10]
  toxicity compared with linolenic acid: smaller than that of linolenic acid
